Experimental data published in patent US20060069132A1, “Azolecarboxamide herbicides” (priority 2004, published 2006).

Key:
rice = experiment: Test B flooded paddy test; format: in vivo, Oryza sativa; details: 1000 g ai/ha, scale 0 to 100 (0 no effect, 100 complete control)
Outline: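 Postemergence plants were sprayed with formulated test chemicals at 2 to 18 cm height (1- to 4-leaf stage); paddy species were grown to the 2-leaf stage. After 13 to 15 days in a greenhouse, injury was rated visually against untreated controls on a 0–100 scale (0 = no effect, 100 = complete control).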

barnyardgrass [1] = experiment: Test B pre-/postemergence herbicide test; format: in vivo, Echinochloa crus-galli; details: for Plant response rating (0 to 100 scale), Barnyardgrass: 0 is no effect, preemergence
Outline: (§1)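 Visual rating, 0 (no effect) to 100 (complete control), versus untreated controls after 13–15 d in greenhouse. Pre- and postemergence applications (postemergence plants 2–18 cm, 1–4 leaves); flooded paddy arm at 2-leaf stage. Compounds in non-phytotoxic solvent plus surfactant.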

lambsquarters = experiment: Test B pre-/postemergence herbicide test; format: in vivo, Chenopodium album; details: for Plant response rating (0 to 100 scale), Lambsquarters: 0 is no effect, 100 is complete control, preemergence
Outline: (§2)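 Response was scored visually 13 to 15 days after treatment against untreated greenhouse controls, 0 meaning no effect and 100 complete control. Formulations (solvent mixture plus surfactant) went onto soil after planting, onto foliage of 1- to 4-leaf plants, and onto 2-leaf plants in a flooded paddy set including rice and barnyardgrass.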

barnyardgrass [2] = experiment: Test B flooded paddy test; format: in vivo, Echinochloa crus-galli; details: 1000 g ai/ha, scale 0 to 100 (0 no effect, 100 complete control)
Outline: (§3)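 Visual ratings, 0 (no effect) to 100 (complete control), made versus controls after 13–15 d greenhouse. Paddy plants treated at 2-leaf stage; postemergence plants at 1- to 4-leaf stage, 2–18 cm tall.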

morningglory = experiment: Test B pre-/postemergence herbicide test; format: in vivo, Ipomoea coccinea; details: for Plant response rating (0 to 100 scale), Morningglory: 0 is no effect, 100 is complete control, preemergence
Outline: as §1

wheat = experiment: Test B postemergence herbicide test; format: in vivo, Triticum aestivum; design: key to Wheat plant response rating: 0 = no effect, 100 = complete control
Outline: (§4)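 Plants grow to 1- to 4-leaf stage (2–18 cm) for postemergence spraying, or to 2-leaf stage for the paddy test. Formulated compound is applied. Greenhouse holding lasts 13–15 days. Response is scored visually relative to controls, 0 no effect to 100 complete control; a dash means no result.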

ducksalad = experiment: Test B flooded paddy test; format: in vivo, Heteranthera limosa; details: 1000 g ai/ha, scale 0 to 100 (0 no effect, 100 complete control)
Outline: as §3

wild oat = experiment: Test B postemergence herbicide test; format: in vivo, Avena fatua; details: scale 0 (no effect) to 100 (complete control)
Outline: as §4

blackgrass = experiment: Test B postemergence herbicide test; format: in vivo, Alopecurus myosuroides
Outline: as §3

velvetleaf = experiment: Test B pre-/postemergence herbicide test; format: in vivo, Abutilon theophrasti; details: for Plant response rating (0 to 100 scale), Velvetleaf: 0 is no effect, 100 is complete control, preemergence
Outline: as §2

[3] = test system: small flower umbrella sedge; experiment: Test B flooded paddy test; format: in vivo, Cyperus difformis; details: 1000 g ai/ha, scale 0 to 100 (0 no effect, 100 complete control)
Outline: as §3

Surinam grass = experiment: Test B pre-/postemergence herbicide test; format: in vivo, Urochloa decumbens; details: for Plant response rating (0 to 100 scale), Surinam Grass: 0 is no effect, 100 is complete control, preemergence
Outline: as §2

pigweed = experiment: Test B pre-/postemergence herbicide test; format: in vivo, Amaranthus retroflexus; details: for Plant response rating (0 to 100 scale), Pigweed: 0 is no effect, 100 is complete control, preemergence
Outline: as §2

large crabgrass = experiment: Test B pre-/postemergence herbicide test; format: in vivo, Digitaria sanguinalis; details: for Plant response rating (0 to 100 scale), Crabgrass, Large: 0 is no effect, preemergence
Outline: as §2

cocklebur = experiment: Test B pre-/postemergence herbicide test; format: in vivo, Xanthium strumarium; details: for Plant response rating (0 to 100 scale), Cocklebur: 0 is no effect, preemergence
Outline: as §1

corn = experiment: Test B pre-/postemergence herbicide test; format: in vivo, Zea mays; details: for Plant response rating (0 to 100 scale), Corn: 0 is no effect, preemergence
Outline: as §2

giant foxtail = experiment: Test B pre-/postemergence herbicide test; format: in vivo, Setaria faberi; details: for Plant response rating (0 to 100 scale), Foxtail, Giant: 0 is no effect, preemergence
Outline: as §2

[4] = 125 g ai/ha, 100 is complete control
[5] = 125 g ai/ha, visual rating, scale 0 (no effect) to 100 (complete control), postemergence
[6] = Postemergence, 500 g ai/ha, scale 0 (no effect) to 100 (complete control)
[7] = 500 g ai/ha, scale 0 to 100, 0 no effect, 100 complete control, preemergence
[8] = 125 g ai/ha, visual rating, postemergence
[9] = Postemergence, 500 g ai/ha, visual rating after 13 to 15 days, scale 0 (no effect) to 100 (complete control)
[10] = Preemergence, 500 g ai/ha, scale 0 to 100
[11] = postemergence, 500 g ai/ha, scale 0 to 100, 0 is no effect, 100 is complete control

COC(=O)c1ccc(F)c(NC(=O)c2nn(C(C)C)nc2C)c1 [Compound 398]
10: Rice plant response rating (rice) | Lambsquarters plant response rating (lambsquarters; [5]) | Lambsquarters plant response rating (lambsquarters; [6]) | Wheat plant response rating (wheat; [6]) | Blackgrass plant response rating (blackgrass; [6]) | Surinam Grass plant response rating (Surinam grass; [5]) | Surinam Grass plant response rating (Surinam grass; [6]) | Pigweed plant response rating (pigweed; [6]) | Crabgrass, Large plant response rating (large crabgrass; [6]) | Cocklebur plant response rating (cocklebur; [6])
80: Sedge, Umbrella plant response rating [3]
30: Foxtail, Giant plant response rating (giant foxtail; [6])
20: Morningglory plant response rating (morningglory; [6]) | Velvetleaf plant response rating (velvetleaf; [5]) | Corn plant response rating (corn; [6]) | Foxtail, Giant plant response rating (giant foxtail; [5])
60: Velvetleaf plant response rating (velvetleaf; [6])
0: Plant response rating (0 to 100 scale), Barnyardgrass (barnyardgrass [1]; [4]) | Barnyardgrass plant response rating (barnyardgrass [1]; [5]) | Barnyardgrass plant response rating (barnyardgrass [1]; [6]) | Plant response rating (0 to 100 scale), Lambsquarters (lambsquarters; 125 g ai/ha) | Barnyardgrass plant response rating (barnyardgrass [2]) | Plant response rating (0 to 100 scale), Morningglory (morningglory; 125 g ai/ha) | Morningglory plant response rating (morningglory; [5]) | Wheat plant response rating (wheat; [5]) | Wheat plant response rating (wheat; [7]) | Ducksalad plant response rating (ducksalad) | Oat, Wild plant response rating (wild oat; [8]) | Oat, Wild plant response rating (wild oat; Postemergence, 500 g ai/ha) | Blackgrass plant response rating (blackgrass; [5]) | Plant response rating (0 to 100 scale), Velvetleaf (velvetleaf; 125 g ai/ha) | Plant response rating (0 to 100 scale), Surinam Grass (Surinam grass; 125 g ai/ha) | Plant response rating (0 to 100 scale), Pigweed (pigweed; 125 g ai/ha) | Pigweed plant response rating (pigweed; [5]) | Plant response rating (0 to 100 scale), Crabgrass, Large (large crabgrass; [4]) | Crabgrass, Large plant response rating (large crabgrass; [5]) | Plant response rating (0 to 100 scale), Cocklebur (cocklebur; [4]) | Cocklebur plant response rating (cocklebur; [5]) | Plant response rating (0 to 100 scale), Corn (corn; [4]) | Corn plant response rating (corn; [5]) | Plant response rating (0 to 100 scale), Foxtail, Giant (giant foxtail; [4])

CCNC(=O)c1cccc(NC(=O)c2cc(C(C)(C)C)nn2CC(C)C)c1 [Compound 42]
40: Pigweed plant response rating (pigweed; [10])
30: Barnyardgrass plant response rating (barnyardgrass [1]; [10])
20: Plant response rating, Barnyardgrass (barnyardgrass [1]; [9]) | Plant response rating, Wheat (wheat; [9]) | Plant response rating, Oat, Wild (wild oat; Postemergence, 500 g ai/ha, visual rating after 13 to 15 days) | Plant response rating, Surinam Grass (Surinam grass; [9]) | Surinam Grass plant response rating (Surinam grass; [10]) | Plant response rating, Cocklebur (cocklebur; [9]) | Plant response rating, Corn (corn; [9])
70: Plant response rating, Lambsquarters (lambsquarters; [9]) | Plant response rating, Pigweed (pigweed; [9]) | Plant response rating, Crabgrass, Large (large crabgrass; [9]) | Crabgrass, Large plant response rating (large crabgrass; [10])
10: Morningglory plant response rating (morningglory; [10]) | Plant response rating, Blackgrass (blackgrass; [9]) | Velvetleaf plant response rating (velvetleaf; [10]) | Plant response rating, Foxtail, Giant (giant foxtail; [9]) | Foxtail, Giant plant response rating (giant foxtail; [10])
60: Plant response rating, Velvetleaf (velvetleaf; [9])
50: Plant response rating, Morningglory (morningglory; [9]) | Ducksalad plant response rating (ducksalad; visual rating, 13 to 15 days) | Sedge, Umbrella plant response rating ([3]; visual rating, 13 to 15 days)
0: Rice plant response rating (rice; visual rating, 13 to 15 days) | Barnyardgrass plant response rating (barnyardgrass [2]; visual rating, 13 to 15 days) | Cocklebur plant response rating (cocklebur; [10]) | Corn plant response rating (corn; [10])
80: Lambsquarters plant response rating (lambsquarters; [10])

C=CCN(CC=C)C(=O)c1ccc(F)c(NC(=O)c2nn(C(C)(C)C)nc2CC)c1 [Compound 387]
30: Oat, Wild plant response rating (wild oat; Postemergence, 500 g ai/ha)
20: Lambsquarters plant response rating (lambsquarters; [5]) | Lambsquarters plant response rating (lambsquarters; [6]) | Blackgrass plant response rating (blackgrass; [11]) | Pigweed plant response rating (pigweed; [5]) | Cocklebur plant response rating (cocklebur; [11]) | Foxtail, Giant plant response rating (giant foxtail; [11])
40: Pigweed plant response rating (pigweed; [6])
0: Rice plant response rating (rice) | Plant response rating (0 to 100 scale), Barnyardgrass (barnyardgrass [1]; [4]) | Barnyardgrass plant response rating (barnyardgrass [1]; [5]) | Barnyardgrass plant response rating (barnyardgrass [1]; [11]) | Plant response rating (0 to 100 scale), Lambsquarters (lambsquarters; 125 g ai/ha) | Barnyardgrass plant response rating (barnyardgrass [2]) | Plant response rating (0 to 100 scale), Morningglory (morningglory; 125 g ai/ha) | Morningglory plant response rating (morningglory; [5]) | Wheat plant response rating (wheat; [5]) | Wheat plant response rating (wheat; [7]) | Ducksalad plant response rating (ducksalad) | Oat, Wild plant response rating (wild oat; [8]) | Blackgrass plant response rating (blackgrass; [5]) | Plant response rating (0 to 100 scale), Velvetleaf (velvetleaf; 125 g ai/ha) | Velvetleaf plant response rating (velvetleaf; [5]) | Sedge, Umbrella plant response rating [3] | Plant response rating (0 to 100 scale), Surinam Grass (Surinam grass; 125 g ai/ha) | Surinam Grass plant response rating (Surinam grass; [5]) | Surinam Grass plant response rating (Surinam grass; [6]) | Plant response rating (0 to 100 scale), Pigweed (pigweed; 125 g ai/ha) | Plant response rating (0 to 100 scale), Crabgrass, Large (large crabgrass; [4]) | Crabgrass, Large plant response rating (large crabgrass; [5]) | Crabgrass, Large plant response rating (large crabgrass; [11]) | Plant response rating (0 to 100 scale), Cocklebur (cocklebur; [4]) | Cocklebur plant response rating (cocklebur; [5]) | Plant response rating (0 to 100 scale), Corn (corn; [4]) | Corn plant response rating (corn; [5]) | Corn plant response rating (corn; [11]) | Plant response rating (0 to 100 scale), Foxtail, Giant (giant foxtail; [4]) | Foxtail, Giant plant response rating (giant foxtail; [5])
10: Morningglory plant response rating (morningglory; [6]) | Wheat plant response rating (wheat; [6]) | Velvetleaf plant response rating (velvetleaf; [6])
